Results reported in publication PMC4113456, “Atypical Signaling and Functional Desensitization Response of MAS Receptor to Peptide Ligands” (PLoS ONE, 2014).
Residue numbers refer to the chain shown, from its start. Read-outs that look alike come from different tables or passages of the source.

Tests used:
MAS M244A mutant = target: T1, MAS M244A mutant (Homo sapiens, UniProt P04201, M244A); test: Calcium assay, M244A MAS mutant stable cell line; format: cell-based
T1 construct: expressed in transfected cells
T1 sequence (P04201 1-325 M244A): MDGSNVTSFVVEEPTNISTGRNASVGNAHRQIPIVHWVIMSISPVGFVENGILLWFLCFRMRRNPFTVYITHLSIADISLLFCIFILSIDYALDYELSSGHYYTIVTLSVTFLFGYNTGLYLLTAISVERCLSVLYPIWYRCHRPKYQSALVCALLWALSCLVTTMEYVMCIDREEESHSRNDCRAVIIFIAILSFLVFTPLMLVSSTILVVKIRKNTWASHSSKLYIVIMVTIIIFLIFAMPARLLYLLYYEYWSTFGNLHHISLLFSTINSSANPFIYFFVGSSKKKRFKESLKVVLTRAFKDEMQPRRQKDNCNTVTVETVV
Protocol: (§1) The assay was performed using FLIPR Calcium 5 assay kit (Molecular Devices, Sunnyvale, CA). For calcium measurements, cells at a density of 125,000 cells/well in 100 µl medium were seeded onto a 96-well clear bottom black cell culture plate that was pre-coated with poly-L-lysine. In the calcium assays the cell density of 125,000 cells/well was consistently maintained to minimize variability between independent experiments. The cells were seeded in induction media to induce MAS expression or in complete media for negative controls. The plate was maintained in a cell culture incubator for 26–28 h. The cells were then serum starved for 2 h by replacing the medium with 100 µl of serum free DMEM. In the case of pre-treatment with pan-inhibitor of G protein signaling, BIM-46187, the cells were initially serum starved for 1 h by replacing the medium with 50 µl of serum free DMEM. After 1 h, 50 µl of BIM-46187 was added to the cells to a final concentration of 25 µM and treated for another 1 h. Following serum starvation, 100 µl of calcium sensitive dye along with 2x (2.5 mM final concentration) probenecid (Life Technologies, Grand Island, NY) was added to the cells. During this step, AR-inverse agonist or BIM-46187 was also added at desired concentrations to the calcium dye preparation in case of experiments where cells were pre-treated with these inhibitors. The cells were maintained for one hour in the cell culture incubator. […] The instrument was programmed in FLEX mode to add ligands (50 µl at 5x concentration) to the cells and to monitor the fluorescence before and after adding the ligands. […]
(§2) The kinetic parameter t1/2 (time taken to reach half of the maximum response) was determined using SoftMax Pro software supplied with the FlexStation 3 instrument (Molecular Devices, Sunnyvale, CA).
(§3) For re-stimulation assays, the data is expressed as the percentage of maximum agonist stimulation to allow for ready comparison between individual experiments. […]

MAS [1] = target: T2, MAS (Homo sapiens, UniProt P04201); set-up: method as in ref [9] (a number printed in a supplementary file, which may have a reference list of its own: not looked up in the article's list); conditions: ref [9], read-out: EC50 (cAMP assay); cited from earlier work
T2 construct: expressed in transfected cells
T2 sequence (P04201 1-325): T1 sequence (P04201 1-325 M244A) with A244M

MAS [2] = target: T2, MAS; set-up: method as in ref [9] (a number printed in a supplementary file, which may have a reference list of its own: not looked up in the article's list); conditions: ref [9], read-out: EC50 (IP1 assay); cited from earlier work
MAS [3] = target: T2, MAS; test: Intracellular cAMP assay, induced MAS cells; format: cell-based; conditions: data not shown
Protocol: Measurement of intracellular cAMP. The intracellular cAMP levels were measured using CatchPoint™ cAMP Fluorescent assay kit from Molecular devices (Molecular Devices, Sunnyvale, CA). For the cAMP assay, the cells were plated at a density of 1.25 million cells/well in a six-well plate. The cells were maintained in a cell culture incubator and induced the following day with doxycycline. The cells were serum starved for 2h following the induction for 26-28h. At this point the serum free media was replaced with 1ml of 3-Isobutyl-1-methylxanthine (Sigma-Aldrich, St. Louis, MO) at 1mM concentration for 15min at 37°C. Following this, 250µl of ligands were added at 5x concentration to the wells and incubated for another 15min at 37°C. The plates were then immediately transferred to ice and the cells were lysed with 150µl of lysis buffer provided with kit. The cAMP levels in the lysed samples were measured according to the protocol provided by the supplier.

MAS F112A mutant = target: T3, MAS F112A mutant (Homo sapiens, UniProt P04201, F112A); test: Calcium assay, F112A MAS mutant stable cell line; format: cell-based
T3 construct: expressed in transfected cells
T3 sequence (P04201 1-325 F112A): T1 sequence (P04201 1-325 M244A) with F112A, A244M
Protocol: as §1, §2, §3

MAS [4] = test system: MAS; set-up: method as in ref [9] (a number printed in a supplementary file, which may have a reference list of its own: not looked up in the article's list); conditions: Rat MAS; ref [9]; read-out: EC50 (cAMP assay); cited from earlier work

COc1cc([N+](=O)[O-])ccc1S(=O)(=O)N1CC(CN2CCN(c3ccccn3)CC2)C(c2cccc(F)c2)C1 (centres unmarked) [AR-agonist]
EC50, Calcium assay (MAS M244A mutant): cbd | t1/2, Calcium assay (MAS M244A mutant): cbd | EC50 (MAS [1]): 720 nM | EC50 (MAS [2]): 350 nM | Effect on cAMP levels (MAS [3]): decreased cAMP levels | EC50, Calcium assay (MAS F112A mutant): cbd | t1/2, Calcium assay (MAS F112A mutant): cbd | EC50 (MAS [4]): 1710 nM
